Legend:
[1] = target: Dual specificity protein kinase CLK4 (Homo sapiens, UniProt Q9HAZ1); assay: Selectivity interaction (KinomeScan (DiscoverX)) EUB0001049a CLK4; conditions: at 1 µM
[2] = target: TRAF2 and NCK-interacting protein kinase (Homo sapiens) (UniProt Q9UKE5); assay: Selectivity interaction (KinomeScan (DiscoverX)) EUB0001049a TNIK; conditions: at 1 µM
[3] = target: T1, Serine/threonine-protein kinase 4 (Homo sapiens) (UniProt Q13043); assay: Selectivity interaction (KinomeScan (DiscoverX)) EUB0000229b STK4; conditions: at 10 µM
T1 sequence (whole entry): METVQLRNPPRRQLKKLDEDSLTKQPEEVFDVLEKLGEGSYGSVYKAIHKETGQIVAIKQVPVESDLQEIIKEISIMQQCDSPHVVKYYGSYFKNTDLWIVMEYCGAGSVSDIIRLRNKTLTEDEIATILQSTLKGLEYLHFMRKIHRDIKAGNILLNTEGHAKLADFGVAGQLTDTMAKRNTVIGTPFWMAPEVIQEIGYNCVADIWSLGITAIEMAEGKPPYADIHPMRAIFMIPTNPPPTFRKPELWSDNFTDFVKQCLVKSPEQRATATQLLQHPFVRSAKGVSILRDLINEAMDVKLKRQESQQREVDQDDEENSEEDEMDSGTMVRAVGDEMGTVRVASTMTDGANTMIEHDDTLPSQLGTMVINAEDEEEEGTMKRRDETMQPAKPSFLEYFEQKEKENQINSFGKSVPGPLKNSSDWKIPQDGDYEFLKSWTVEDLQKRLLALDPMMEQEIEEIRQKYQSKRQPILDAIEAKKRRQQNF

[4] = target: Calcium/calmodulin-dependent protein kinase type 1D (Homo sapiens) (UniProt Q8IU85); assay: Selectivity interaction (KinomeScan (DiscoverX)) EUB0000045b CAMK1D
Chain of Calcium/calmodulin-dependent protein kinase type 1D (Homo sapiens) (Q8IU85 whole entry, looked up): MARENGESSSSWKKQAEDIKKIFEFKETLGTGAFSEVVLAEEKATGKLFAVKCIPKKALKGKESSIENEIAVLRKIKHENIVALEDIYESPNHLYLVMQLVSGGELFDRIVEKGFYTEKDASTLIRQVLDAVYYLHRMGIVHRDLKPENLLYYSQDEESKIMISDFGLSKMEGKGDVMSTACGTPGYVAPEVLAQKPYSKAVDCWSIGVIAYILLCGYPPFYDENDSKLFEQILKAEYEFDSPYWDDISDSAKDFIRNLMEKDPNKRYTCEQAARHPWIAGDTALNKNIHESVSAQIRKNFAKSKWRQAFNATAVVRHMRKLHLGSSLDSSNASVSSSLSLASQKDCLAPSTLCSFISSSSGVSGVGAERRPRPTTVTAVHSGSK

[5] = target: Dual specificity mitogen-activated protein kinase kinase 2 (Homo sapiens) (UniProt P36507); assay: Selectivity interaction (KinomeScan (DiscoverX)) EUB0000045b MAP2K2
Chain of Dual specificity mitogen-activated protein kinase kinase 2 (Homo sapiens) (P36507 whole entry): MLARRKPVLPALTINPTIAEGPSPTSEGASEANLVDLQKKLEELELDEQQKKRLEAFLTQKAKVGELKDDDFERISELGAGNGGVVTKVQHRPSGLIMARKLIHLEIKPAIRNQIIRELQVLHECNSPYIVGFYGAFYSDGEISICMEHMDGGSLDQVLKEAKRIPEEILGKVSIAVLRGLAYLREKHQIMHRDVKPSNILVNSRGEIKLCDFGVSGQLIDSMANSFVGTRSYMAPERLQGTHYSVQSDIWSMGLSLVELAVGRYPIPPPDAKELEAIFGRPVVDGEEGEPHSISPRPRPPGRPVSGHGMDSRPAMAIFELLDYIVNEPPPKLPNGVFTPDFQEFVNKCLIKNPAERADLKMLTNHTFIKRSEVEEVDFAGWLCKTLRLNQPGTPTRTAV

[6] = target: Dual specificity protein kinase CLK2 (Homo sapiens, UniProt P49760); assay: Selectivity interaction (KinomeScan (DiscoverX)) EUB0000655a CLK2; conditions: at 10 µM
[7] = target: MAP kinase-interacting serine/threonine-protein kinase 1 (Homo sapiens) (UniProt Q9BUB5); assay: Selectivity interaction (KinomeScan (DiscoverX)) EUB0000655a MKNK1; conditions: at 10 µM
Chain of MAP kinase-interacting serine/threonine-protein kinase 1 (Homo sapiens) (Q9BUB5 whole entry, looked up): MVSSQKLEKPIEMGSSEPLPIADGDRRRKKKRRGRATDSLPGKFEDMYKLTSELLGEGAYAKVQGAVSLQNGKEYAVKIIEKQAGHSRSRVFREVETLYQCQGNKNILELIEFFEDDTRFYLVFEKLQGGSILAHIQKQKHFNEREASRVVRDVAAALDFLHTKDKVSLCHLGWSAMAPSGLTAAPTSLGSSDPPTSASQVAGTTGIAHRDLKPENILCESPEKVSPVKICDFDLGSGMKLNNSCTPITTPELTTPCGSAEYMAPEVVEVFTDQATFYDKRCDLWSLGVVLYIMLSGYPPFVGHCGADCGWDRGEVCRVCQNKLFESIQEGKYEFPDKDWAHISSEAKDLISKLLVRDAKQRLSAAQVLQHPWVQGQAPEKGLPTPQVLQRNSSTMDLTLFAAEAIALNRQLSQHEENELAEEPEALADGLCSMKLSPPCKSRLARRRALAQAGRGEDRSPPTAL

[8] = target: T2, Serine/threonine-protein kinase Nek2 (Homo sapiens) (UniProt P51955); assay: Selectivity interaction (SelectScreen profiling (Invitrogen)) EUB0000607a NEK2; conditions: at 2 µM
T2 sequence (whole entry): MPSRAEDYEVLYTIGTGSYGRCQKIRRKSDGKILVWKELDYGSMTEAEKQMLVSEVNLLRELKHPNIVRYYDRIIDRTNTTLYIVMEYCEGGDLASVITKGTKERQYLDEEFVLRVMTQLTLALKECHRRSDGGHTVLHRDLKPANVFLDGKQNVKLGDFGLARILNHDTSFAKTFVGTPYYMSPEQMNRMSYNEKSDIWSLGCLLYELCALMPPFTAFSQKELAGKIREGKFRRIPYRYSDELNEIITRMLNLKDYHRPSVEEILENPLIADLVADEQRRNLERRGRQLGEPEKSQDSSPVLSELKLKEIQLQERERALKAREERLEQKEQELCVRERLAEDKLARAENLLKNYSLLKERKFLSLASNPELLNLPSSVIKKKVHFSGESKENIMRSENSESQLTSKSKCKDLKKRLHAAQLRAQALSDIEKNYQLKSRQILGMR

[9] = target: T3, Phosphorylase b kinase gamma catalytic chain, liver/testis isoform (Homo sapiens) (UniProt P15735); assay: Selectivity interaction (SelectScreen profiling (Invitrogen)) EUB0000607a PHKG2; conditions: at 2 µM
T3 sequence (whole entry): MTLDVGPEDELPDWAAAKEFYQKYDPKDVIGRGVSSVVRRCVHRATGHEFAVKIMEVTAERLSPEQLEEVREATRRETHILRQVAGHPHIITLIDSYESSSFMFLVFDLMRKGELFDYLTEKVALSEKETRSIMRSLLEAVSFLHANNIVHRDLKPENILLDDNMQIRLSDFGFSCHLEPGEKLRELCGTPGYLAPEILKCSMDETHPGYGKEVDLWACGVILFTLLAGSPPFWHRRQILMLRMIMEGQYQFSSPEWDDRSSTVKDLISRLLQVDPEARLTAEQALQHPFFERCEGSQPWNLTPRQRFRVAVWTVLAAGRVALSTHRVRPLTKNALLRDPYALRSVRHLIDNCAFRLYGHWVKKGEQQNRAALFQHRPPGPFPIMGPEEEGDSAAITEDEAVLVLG

[10] = target: T4, Serine/threonine-protein kinase D1 (Homo sapiens) (UniProt Q15139); assay: Selectivity interaction (SelectScreen profiling (Invitrogen)) EUB0000607a PRKD1; conditions: at 2 µM
T4 sequence (whole entry): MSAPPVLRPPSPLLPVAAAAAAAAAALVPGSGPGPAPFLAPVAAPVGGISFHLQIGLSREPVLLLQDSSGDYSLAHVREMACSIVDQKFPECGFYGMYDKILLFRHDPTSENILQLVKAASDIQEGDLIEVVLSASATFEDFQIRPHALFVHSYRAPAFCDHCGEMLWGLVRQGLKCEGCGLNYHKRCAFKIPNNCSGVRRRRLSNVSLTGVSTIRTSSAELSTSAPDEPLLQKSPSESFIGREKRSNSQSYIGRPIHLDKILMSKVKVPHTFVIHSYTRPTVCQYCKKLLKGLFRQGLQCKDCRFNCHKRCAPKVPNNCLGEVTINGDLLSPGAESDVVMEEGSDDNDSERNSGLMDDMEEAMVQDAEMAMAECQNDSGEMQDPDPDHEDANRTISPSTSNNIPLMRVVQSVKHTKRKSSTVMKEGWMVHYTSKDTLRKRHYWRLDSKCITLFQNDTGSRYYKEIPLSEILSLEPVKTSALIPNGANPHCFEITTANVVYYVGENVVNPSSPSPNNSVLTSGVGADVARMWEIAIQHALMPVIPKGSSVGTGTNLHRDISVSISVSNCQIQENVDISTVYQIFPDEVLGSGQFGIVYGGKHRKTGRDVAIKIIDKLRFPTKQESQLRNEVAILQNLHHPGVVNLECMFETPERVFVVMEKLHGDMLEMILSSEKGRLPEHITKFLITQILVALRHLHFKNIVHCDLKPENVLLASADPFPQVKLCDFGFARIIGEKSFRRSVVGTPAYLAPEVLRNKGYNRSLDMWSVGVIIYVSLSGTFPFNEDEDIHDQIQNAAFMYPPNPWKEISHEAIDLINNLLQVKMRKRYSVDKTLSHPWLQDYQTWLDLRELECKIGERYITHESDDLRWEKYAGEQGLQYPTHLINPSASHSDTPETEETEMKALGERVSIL

[11] = target: Serine/threonine-protein kinase MRCK alpha (Homo sapiens) (UniProt Q5VT25); assay: Selectivity interaction (ProQinase) EUB0000171b CDC42BPA
Chain of Serine/threonine-protein kinase MRCK alpha (Homo sapiens) (Q5VT25 whole entry): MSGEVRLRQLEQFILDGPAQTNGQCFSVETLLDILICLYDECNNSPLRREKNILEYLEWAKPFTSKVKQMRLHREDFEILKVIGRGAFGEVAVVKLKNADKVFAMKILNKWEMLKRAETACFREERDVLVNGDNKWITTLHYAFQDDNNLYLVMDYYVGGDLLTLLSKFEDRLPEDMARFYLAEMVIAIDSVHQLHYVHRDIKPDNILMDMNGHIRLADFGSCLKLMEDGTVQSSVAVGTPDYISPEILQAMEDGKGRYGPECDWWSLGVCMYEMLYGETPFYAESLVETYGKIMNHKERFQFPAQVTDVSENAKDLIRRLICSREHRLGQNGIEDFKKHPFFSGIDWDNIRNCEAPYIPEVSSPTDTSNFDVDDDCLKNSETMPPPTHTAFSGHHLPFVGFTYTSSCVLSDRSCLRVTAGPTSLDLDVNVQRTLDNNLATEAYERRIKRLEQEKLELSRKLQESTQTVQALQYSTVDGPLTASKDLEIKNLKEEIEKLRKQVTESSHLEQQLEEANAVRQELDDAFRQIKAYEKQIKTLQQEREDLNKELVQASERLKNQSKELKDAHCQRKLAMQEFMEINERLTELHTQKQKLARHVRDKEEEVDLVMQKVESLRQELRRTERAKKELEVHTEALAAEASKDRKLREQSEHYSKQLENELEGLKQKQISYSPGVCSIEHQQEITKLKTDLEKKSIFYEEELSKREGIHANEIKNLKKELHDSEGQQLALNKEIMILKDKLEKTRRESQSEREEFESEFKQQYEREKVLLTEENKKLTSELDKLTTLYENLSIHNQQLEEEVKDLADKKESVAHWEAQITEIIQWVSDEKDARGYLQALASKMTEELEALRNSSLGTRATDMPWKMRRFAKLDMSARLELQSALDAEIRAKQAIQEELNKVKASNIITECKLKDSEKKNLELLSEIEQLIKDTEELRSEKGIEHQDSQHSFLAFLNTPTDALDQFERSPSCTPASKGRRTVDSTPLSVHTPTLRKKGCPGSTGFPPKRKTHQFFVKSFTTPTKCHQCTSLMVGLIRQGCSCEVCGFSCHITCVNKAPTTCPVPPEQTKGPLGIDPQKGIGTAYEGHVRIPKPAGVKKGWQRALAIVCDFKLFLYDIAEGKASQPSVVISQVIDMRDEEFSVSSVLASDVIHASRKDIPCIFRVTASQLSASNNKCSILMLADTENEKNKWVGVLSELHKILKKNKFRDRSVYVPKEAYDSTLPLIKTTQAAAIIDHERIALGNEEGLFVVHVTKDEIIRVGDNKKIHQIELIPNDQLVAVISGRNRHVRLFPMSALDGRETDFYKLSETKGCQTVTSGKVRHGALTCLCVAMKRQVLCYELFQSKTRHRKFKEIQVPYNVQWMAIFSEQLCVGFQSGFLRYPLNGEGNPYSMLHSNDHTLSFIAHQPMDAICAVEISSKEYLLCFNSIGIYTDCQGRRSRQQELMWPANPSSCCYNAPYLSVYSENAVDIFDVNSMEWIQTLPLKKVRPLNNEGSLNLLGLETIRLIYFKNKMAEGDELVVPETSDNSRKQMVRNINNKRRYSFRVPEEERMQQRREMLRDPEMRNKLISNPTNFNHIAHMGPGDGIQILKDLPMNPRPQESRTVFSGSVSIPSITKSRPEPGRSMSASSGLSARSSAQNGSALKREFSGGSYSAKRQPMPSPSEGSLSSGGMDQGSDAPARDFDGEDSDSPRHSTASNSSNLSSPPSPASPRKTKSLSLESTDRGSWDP

Chain of TRAF2 and NCK-interacting protein kinase (Homo sapiens) (Q9UKE5 whole entry, looked up): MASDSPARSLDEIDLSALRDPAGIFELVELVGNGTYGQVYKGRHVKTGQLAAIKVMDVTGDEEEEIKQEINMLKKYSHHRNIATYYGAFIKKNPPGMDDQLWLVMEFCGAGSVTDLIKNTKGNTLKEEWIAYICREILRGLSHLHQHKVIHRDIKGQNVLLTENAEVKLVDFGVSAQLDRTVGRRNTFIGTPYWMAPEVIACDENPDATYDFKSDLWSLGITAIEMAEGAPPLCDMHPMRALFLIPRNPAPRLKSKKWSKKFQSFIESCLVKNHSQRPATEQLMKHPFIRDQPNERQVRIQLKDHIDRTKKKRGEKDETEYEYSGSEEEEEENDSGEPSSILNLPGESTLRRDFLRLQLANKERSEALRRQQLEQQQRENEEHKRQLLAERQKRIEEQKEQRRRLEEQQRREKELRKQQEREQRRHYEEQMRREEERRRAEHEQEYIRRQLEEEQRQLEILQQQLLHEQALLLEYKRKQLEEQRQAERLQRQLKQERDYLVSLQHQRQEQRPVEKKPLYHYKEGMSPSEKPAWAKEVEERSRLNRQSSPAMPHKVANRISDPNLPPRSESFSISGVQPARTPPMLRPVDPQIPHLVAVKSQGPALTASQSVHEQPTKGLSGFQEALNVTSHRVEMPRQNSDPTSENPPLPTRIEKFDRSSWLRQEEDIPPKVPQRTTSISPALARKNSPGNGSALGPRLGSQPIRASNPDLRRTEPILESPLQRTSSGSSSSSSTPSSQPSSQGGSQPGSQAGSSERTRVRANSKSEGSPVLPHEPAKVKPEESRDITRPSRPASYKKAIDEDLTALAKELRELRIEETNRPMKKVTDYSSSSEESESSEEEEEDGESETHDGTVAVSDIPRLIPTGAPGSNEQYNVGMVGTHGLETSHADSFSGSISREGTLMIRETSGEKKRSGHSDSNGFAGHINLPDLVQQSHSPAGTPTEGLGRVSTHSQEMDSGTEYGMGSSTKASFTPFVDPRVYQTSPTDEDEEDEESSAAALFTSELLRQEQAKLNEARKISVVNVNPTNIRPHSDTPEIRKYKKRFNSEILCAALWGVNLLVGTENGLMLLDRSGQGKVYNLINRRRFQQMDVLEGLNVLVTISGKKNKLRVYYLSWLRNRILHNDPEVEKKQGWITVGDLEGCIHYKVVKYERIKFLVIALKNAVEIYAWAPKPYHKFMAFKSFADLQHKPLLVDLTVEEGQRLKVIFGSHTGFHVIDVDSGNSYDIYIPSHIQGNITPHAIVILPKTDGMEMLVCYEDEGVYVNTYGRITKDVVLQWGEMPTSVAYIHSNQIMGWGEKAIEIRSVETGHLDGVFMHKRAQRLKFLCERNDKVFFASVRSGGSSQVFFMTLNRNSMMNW
Chain of Dual specificity protein kinase CLK4 (Q9HAZ1 whole entry, looked up): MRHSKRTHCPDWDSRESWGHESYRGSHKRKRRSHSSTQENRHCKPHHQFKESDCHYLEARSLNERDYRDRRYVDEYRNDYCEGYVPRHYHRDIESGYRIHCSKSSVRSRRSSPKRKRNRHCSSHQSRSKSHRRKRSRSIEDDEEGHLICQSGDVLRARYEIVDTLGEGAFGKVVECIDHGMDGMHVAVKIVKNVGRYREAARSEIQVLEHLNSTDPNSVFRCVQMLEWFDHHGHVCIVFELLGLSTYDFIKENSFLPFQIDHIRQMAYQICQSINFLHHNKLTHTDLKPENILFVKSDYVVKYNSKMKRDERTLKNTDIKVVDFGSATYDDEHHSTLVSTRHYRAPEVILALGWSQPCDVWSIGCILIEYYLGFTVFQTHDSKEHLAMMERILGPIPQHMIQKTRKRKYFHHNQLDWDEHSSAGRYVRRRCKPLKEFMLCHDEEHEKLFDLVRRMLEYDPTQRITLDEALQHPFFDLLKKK

COc1cc(Nc2nc(C)cc(-c3cnn4nc(OC)ccc34)n2)cc(C(F)(F)F)c1
% of control [1]: 98% | % of control [2]: 74%

COc1cc(N(C)c2ccnc3ccc(C(F)(F)F)cc23)cc(OC)c1OC
% binding [3]: 99%

C=CC(=O)Nc1cc(-n2c(=O)ccc3cnc4ccc(-c5ccc(NS(C)(=O)=O)cc5)cc4c32)ccc1C
% of control ([4]; at 1 µM): 100% | % of control ([4]; at 10 µM): 77% | % of control ([5]; at 1 µM): 96% | % of control ([5]; at 10 µM): 66%

CN(C)CCOc1ccc(-c2nc(-c3ccncc3)c(-c3ccc4c(c3)CC/C4=N\O)[nH]2)cc1
% of control [6]: 52% | % of control [7]: 81%

CNC(=O)Nc1ccc(-c2nc(N3CC4CCC(C3)O4)c3cnn(C4CCC5(CC4)OCCO5)c3n2)cc1
% of inhibition [8]: 10% | % of inhibition [9]: 12% | % of inhibition [10]: 0%

C=CC(=O)Nc1cccc(C(=O)Nc2ccc(Nc3cc(-c4[nH]c(SC)nc4C)ccn3)cc2)c1
% of control ([11]; at 1 µM): 102% | % of control ([11]; at 5 µM): 91%

From ChEMBL document CHEMBL5465560, “Selectivity Literature for EUbOPEN Chemogenomic Library” (2024)
